Measurements: patent publication US20060058359A1, “Compounds useful as pesticides” (priority 2002, published 2006)

Tests used:
[1] = system: Cat Flea (Cntenocephalides felis); test: Testing with Cat Flea (treated media assay); type: in vivo; settings: 0.1 μg/g rate in media, infested with eggs, adults counted after five weeks vs acetone only
Procedure: Media is prepared by mixing 1 part dried bovine blood, 4 parts ground dog food pellets, and 95 parts clean sand. Compounds are dissolved in acetone and further diluted in acetone to yield the required range of concentrations. The acetone solutions are applied to measured amounts of media in small dishes. Final concentrations are expressed as micrograms of compound per gram of media. After the acetone has dried, the treated media is dispensed into small glass vials and infested with 5 to 10 cat flea (Cntenocephalides felis) eggs. The vials are loosely capped and held under controlled conditions for five weeks. Activity is assessed based on the average number of adult cat fleas present in the treated vials compared to the average number of adult cat fleas in the media treated with acetone only.

[2] = system: Cotton Aphid (Aphis gossypii); test: Testing with Cotton Aphid (squash cotyledon foliar spray assay); type: in vivo; settings: foliar spray on squash, 3 days after application
From the text: Yellow crookneck squash, Cucurbita pepo, is planted in 3 inch pots and placed in a greenhouse. Plants are watered regularly for 5 to 7 days until they reach the first emergent leaf stage. Plants are then trimmed to a single cotyledon. The squash assay consists of four squash plants per treatment with each plant cotyledon considered a replicate. Four additional plants are used as a control treatment (receiving solvent blank application only). Twenty-four hours prior to application, a leaf section of heavily infested squash plant from the aphid colony is placed onto each cotyledon, allowing a mixed population of A. gossypii nymphs and adults to migrate and infest the test plants. The pre-infested squash cotyledons are sprayed on both the upper and lower surfaces using an airbrush sprayer set at 2 psi. Formulation is an aqueous solution containing 5% solvent and 0.025% Tween 20 surfactant to yield concentrations of 50 ppm and 5 ppm of the test compound. Plants are sprayed to runoff. Tests are held in ambient laboratory temperatures for three days. At 3 days after application (DM) the number of live aphids are counted with the aid of a dissecting microscope. The number of live aphids in the treatment is compared to the number of live aphids in the solvent blank-treated controls and percent mortality is calculated.

| SMILES | control of cat fleas [1] [%] | percent mortality ([2]; 5 parts per million) [%] | percent mortality ([2]; 50 parts per million) [%] |
| --- | --- | --- | --- |
| C/N=C(/C(=CN(C)C)[N+](=O)[O-])N(C)Cc1ccc(Cl)nc1 [Compound One] | 90 | 100 | 100 |
| C/N=C(/C(=CNc1ccccc1)[N+](=O)[O-])N(C)Cc1ccc(Cl)nc1 [Compound Three] | 38 | 100 | 100 |
